Experimental data published in patent US20260226042A1, “C[…] H[…] PROCESSES FOR PREPARING THE SAME” (OLON S.P.A., priority 2023, published 2026).
Where a name gives a salt, the structure may show the parent alone.

Experiment: Dynamic Vapor Sorption (DVS) Isotherm of Aceclidine HCl (hydration of anhydrous to hemihydrate form)
Format: physicochemical
Experimental: The conversion from anhydrous to hemihydrate form of Aceclidine HCl (4 mg) was analyzed by a Dynamic Vapor Sorption (DVS) Isotherm.

| Compound | weight when environmental humidity content decreased (DVS, FIG. 4) | reversibility of conversion anhydrous to hemihydrate form (DVS, with decreasing relative humidity, FIG. 4) | hygroscopicity (compared to the corresponding anhydrous form) | conversion into other forms without controlled conditions (handling without humidity-controlled conditions (e.g. glove box)) | weight change at which the hemihydrate form formation is obtained (DVS isotherm, weight change % / relative humidity %, 4 mg sample, FIG. 4) |
| --- | --- | --- | --- | --- | --- |
| CC(=O)OC1CN2CCC1CC2 (centres unmarked) [Aceclidine HCl hemihydrate] | remained stable | irreversible | low hygroscopicity | not subjected to any conversion | – |
| CC(=O)OC1CN2CCC1CC2 (centres unmarked) [Anhydrous Aceclidine HCl, anhydrous Aceclidine HCl, reference compound] | – | – | – | – | about 4% |
